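Exposure lasted 48 hours, with cells grown in 96-well plates and compounds tested at five concentrations. GI50 is the concentration that inhibits growth by half.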 Calls of active or inactive are those of the source. Cut-off read from the data, not from the text of the source: active = GI50 up to about 1.1 µM and inactive = higher.
Experiments:
Test in all cases: inhibition of tumour cell growth, NCI panel, 48 h
RXF 393 = test system: RXF 393
OVCAR-3 = test system: OVCAR-3
NCI/ADR-RES = test system: NCI/ADR-RES
SN12C = test system: SN12C
TK-10 = test system: TK-10
MDA-MB-231 = test system: MDA-MB-231
BT-549 = test system: BT-549
HOP-92 = test system: HOP-92
PC-3 = test system: PC-3
SW-620 = test system: SW-620
NCI-H23 = test system: NCI-H23
HOP-62 = test system: HOP-62
HT-29 = test system: HT-29
OVCAR-5 = test system: OVCAR-5
SF-539 = test system: SF-539
COLO 205 = test system: COLO 205
MCF7 = test system: MCF7
UO-31 = test system: UO-31
NCI-H522 = test system: NCI-H522
Malme-3M = test system: Malme-3M

Measured: GI50

Oc1ccc(Cl)cc1-c1nc(S)nc(-c2ccccc2)c1Cl
inactive: RXF 393 45 µM | OVCAR-3 > 100 µM | NCI/ADR-RES > 100 µM | SN12C > 100 µM | TK-10 49.1 µM | MDA-MB-231 > 56.4 µM | BT-549 44.7 µM | HOP-92 69.8 µM | PC-3 > 100 µM | SW-620 > 100 µM | NCI-H23 > 100 µM | HOP-62 31.1 µM | HT-29 > 31.6 µM | OVCAR-5 > 100 µM | SF-539 > 10 µM | COLO 205 > 100 µM | MCF7 > 100 µM | UO-31 > 88.5 µM | NCI-H522 > 31.6 µM | Malme-3M > 100 µM

COC(=O)c1ccc(NCC2=CC(=O)C=CC2=O)cc1O
inactive: RXF 393 19.9 µM | OVCAR-3 11.5 µM | NCI/ADR-RES 18.1 µM | SN12C 21.5 µM | TK-10 14.4 µM | MDA-MB-231 16.8 µM | BT-549 11.4 µM | HOP-92 2.92 µM | PC-3 31.8 µM | SW-620 24.3 µM | NCI-H23 17.9 µM | HOP-62 18.1 µM | HT-29 19.6 µM | OVCAR-5 18.8 µM | SF-539 13.5 µM | COLO 205 13.2 µM | MCF7 20.8 µM | UO-31 12.7 µM | NCI-H522 2.11 µM | Malme-3M 10.6 µM
